Measurements published in patent publication US20220128542A1, “TREATMENT EFFICIENCY EVALUATION” (TX MEDIC AB, priority 2019, published 2022).

Legend:
[1] = system: Mouse motor neurons; test: Gene expression array and pathway/upstream regulator analysis in motor neurons (Example 2); format: cell-based; settings: 0.01 mg/ml
Protocol: (§1) For each cell line, n=8×25 cm^2 culture flasks were set up. Two flasks were harvested for each cell type on the day of treatment (24 hours after seeding). This represents the Day0 time point. From the remaining flasks, three flasks were treated with Control Medium and three were treated with Culture Medium (CM) containing LMW-DS to give a final concentration of 0.01 mg/ml. Cells from the treated flasks were collected after 48 hours. Therefore the collected data represent (a) untreated cells (Day0 Controls and Day2 Controls) and (b) cells treated with LMW-DS for 48 hours (Day2 LMW-DS treated).
(§2) 25 cm^2 flasks were coated by adding 2 ml per flask of a solution of 50 μg/ml poly-d-lysine in Hank's balanced salt solution (HBSS) and incubating overnight at 37° C. in the dark. Flasks were washed with cell culture water and air-dried for 30 min in the dark. Flasks were coated by adding 1 ml per flask of a solution of 25 μg/ml laminin in phosphate-buffered saline (PBS) and incubating for 2 hour at 37° C. in the dark. The laminin flasks were washed with PBS three times before plating cells.
The culture medium was prepared according to Table 5.
Medium (see Table 5) was pre-warmed to 37° C. Cells were thawed in a 37° C. water bath for no longer than 2 min. 9 ml of media was gently added drop-wise. The cell suspension was mixed by inverting the tube carefully twice. The cells were counted with a Cellometer. The cells were centrifuged for 5 minutes at 200×g. Supernatant was removed (to the last 0.5 ml) and cells were gently re-suspended by trituration. The cells from the 8 vials were mixed and distributed equally into the previously coated 25 cm^2 flasks (n=8). Cells were incubated at 37° C. with 5% CO2 for 24 hours before treatment.
(§3) A fresh 100× LMW-DS stock (1.0 mg/ml) was prepared in sterile DMEM-F12. The concentrated drug stock was sterile filtered and added to the respective culture media (19.6 ml CM and 0.4 ml LMW-DS stock solution). The Control was made using 19.6 ml CM and 0.4 ml of DMEM-F12. LMW-DS and CM were added to the respective flasks (5 ml each) to reach the 0.01 mg/ml concentration of LMW-DS in each dish with a total of 10 ml CM each.
(§4) CM was aspirated into a clean and labelled 15 ml Falcon tube. The flasks (without culture medium) were placed into the −80° C. freezer for 30 minutes. The CM in the Falcon tubes was spun at 3000×g for 5 minutes. Supernatant was removed and the small pellet was re-suspended in 2.5 ml Trizol:Water (4:1) solution at room temperature (RT, ˜22° C.).
(§5) The frozen flasks were removed one-by one from the freezer and the Trizol-Water from the appropriate tubes was moved to the flask. Flasks were left at RT for 5 minutes before the content was aspirated back into the 15 ml Falcon tube (after washing the bottom of the flask with the solution thoroughly). The flasks were inspected under the microscope to ensure full removal of cells. The collected lysates in the 15 ml Falcon tubes were placed into the −80° C. freezer.
(§6) Falcon tubes containing the homogenates were removed from the freezer and stored for 5 minutes at RT to permit the complete dissociation of nucleoprotein complexes.
(§7) Two aliquots of 1 ml lysate were removed from each sample and 200 μl of chloroform was added to each (0.2 ml of chloroform per 1 ml of TRIzol Reagent used during the cell lysis step) and the tube was shaken vigorously. Samples were stored at RT for 2-3 minutes and subsequently centrifuged at 12,000×g for 15 minutes at 4° C.
(§8) The mixture separated into three layers: a lower red phenol-chloroform phase, an interphase and a colorless upper aqueous phase. The RNA remained in the top aqueous phase, DNA in the white middle (interphase) phase and protein in the pink bottom (organic) phase. The top ¾ of the aqueous phase was transferred to a new clean Eppendorf tube.
The RNA was precipitated from the aqueous phase by adding an equal amount of 100% ethanol. The precipitated RNA was fixed onto a Spin Cartridge, washed twice and dried. […]

[2] = system: Mouse cortical neurons; test: Gene expression array and pathway analysis in cortical neurons (Example 2); format: cell-based; settings: for differentially expressed genes: cortical neuron section (printed motor neurons)
Protocol: as §1, §2
Medium was prepared by adding 10 ml B-27 Serum-Free Supplement and 2.5 ml GlutaMAX™-I Supplement to 500 ml of Neurobasal medium. The medium was pre-warmed to 37° C. Cells from 12 vials were thawed sequentially in a 37° C. water bath for no longer than 2 min and gently transferred into a 15 ml tube. 9 ml of medium was gently added drop-wise to each. The cell suspension was mixed by inverting the tubes carefully twice.
The cells were centrifuged for 5 minutes at 200×g. Supernatant was removed (to the last 0.5 ml) and cells were gently re-suspended by trituration. The cells from the 12 vials were mixed and distributed equally into the previously coated 25 cm^2 flasks (n=8). Cells were incubated at 37° C. with 5% CO2 for 24 hours.
as §3, §4, §5, §6, §7, §8
The RNA was precipitated from the aqueous phase by adding an equal amount of 100% ethanol. […]

[3] = cortical neurons, 0.01 mg/ml, 48 hours

sodium salt of dextran sulfate [LMW-DS]
number of genes: no effect / abolished nutrient effect ([1]; 48 hours): 177 | number of genes: no effect / new effect induced by LMW-DS ([1]; 48 hours): 108 | number of genes: no effect / total ([1]; 48 hours): 285 | number of genes: significant downregulation / abolished nutrient effect ([1]; 48 hours): 47 | number of genes: significant downregulation / enhanced response to nutrients ([1]; 48 hours): 36 | number of genes: significant downregulation / new effect induced by LMW-DS ([1]; 48 hours): 375 | number of genes: significant downregulation / not different from control ([1]; 48 hours): 104 | number of genes: significant downregulation / total ([1]; 48 hours): 562 | number of genes: significant upregulation / abolished nutrient effect ([1]; 48 hours): 40 | number of genes: significant upregulation / enhanced response to nutrients ([1]; 48 hours): 103 | number of genes: significant upregulation / new effect induced by LMW-DS ([1]; 48 hours): 71 | number of genes: significant upregulation / not different from control ([1]; 48 hours): 75 | number of genes: significant upregulation / total ([1]; 48 hours): 289 | number of genes: total / abolished nutrient effect ([1]; 48 hours): 264 | number of genes: total / enhanced response to nutrients ([1]; 48 hours): 139 | number of genes: total / new effect induced by LMW-DS ([1]; 48 hours): 554 | number of genes: total / not different from control ([1]; 48 hours): 179 | number of genes: total / total ([1]; 48 hours): 1136 | differentially expressed genes ([1]; D0 control vs D2 LMW-DS treated): 315 genes | differentially expressed genes ([1]; second comparison): 425 genes | differentially expressed genes ([2]; D0 control vs D2 LMW-DS treated, 0.01 mg/ml): 609 genes | differentially expressed genes ([2]; second comparison, printed as D0 control to D2 LMW-DS treated): 247 genes | number of genes: no effect / abolished nutrient effect [2, 3]: 572 | number of genes: no effect / new effect induced by LMW-DS [2, 3]: 19 | number of genes: no effect / total [2, 3]: 591 | number of genes: significant downregulation / abolished nutrient effect [2, 3]: 7 | number of genes: significant downregulation / enhanced response to nutrients [2, 3]: 158 | number of genes: significant downregulation / new effect induced by LMW-DS [2, 3]: 22 | number of genes: significant downregulation / not different from control [2, 3]: 95 | number of genes: significant downregulation / total [2, 3]: 282 | number of genes: significant upregulation / abolished nutrient effect [2, 3]: 33 | number of genes: significant upregulation / enhanced response to nutrients [2, 3]: 43 | number of genes: significant upregulation / new effect induced by LMW-DS [2, 3]: 7 | number of genes: significant upregulation / not different from control [2, 3]: 221 | number of genes: significant upregulation / total [2, 3]: 304 | number of genes: total / abolished nutrient effect [2, 3]: 612 | number of genes: total / enhanced response to nutrients [2, 3]: 612 | number of genes: total / new effect induced by LMW-DS [2, 3]: 48 | number of genes: total / not different from control [2, 3]: 316 | number of genes: total / total [2, 3]: 1177
